Measurements taken from patent US10508120B2, “TYK2 inhibitors and uses thereof” (Nimbus Lakshmi, Inc., priority 2017, dated 2019).

What was measured:
[1] = target: Tyk2 kinase domain (DH1) (Homo sapiens (Human), UniProt P29597); assay: Tyk2 Radioactive Kinase Assay; format: biochemical; details: compound at 10 μM; ATP 10 μM; read-out: Tyk2 JH1% Inhibition @ 10 μM
Procedure, shortened: (§1)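 Each kinase domain is incubated with test compound at 10 μM. Activity is then measured radiometrically and expressed as percent inhibition relative to uninhibited enzyme.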

[2] = target: JAK2/JAK2 homdimeric complex (Homo sapiens (Human), UniProt O60674); assay: GM-CSF Induced pSTAT5 in Human PBMC; format: cell-based; details: GM-CSF 5 ng/mL for 20 minutes, pSTAT5 by MSD, read-out: PBMC_GMCSF_pSTAT5 IC50
JAK2/JAK2 homdimeric complex, sequence (O60674 whole entry): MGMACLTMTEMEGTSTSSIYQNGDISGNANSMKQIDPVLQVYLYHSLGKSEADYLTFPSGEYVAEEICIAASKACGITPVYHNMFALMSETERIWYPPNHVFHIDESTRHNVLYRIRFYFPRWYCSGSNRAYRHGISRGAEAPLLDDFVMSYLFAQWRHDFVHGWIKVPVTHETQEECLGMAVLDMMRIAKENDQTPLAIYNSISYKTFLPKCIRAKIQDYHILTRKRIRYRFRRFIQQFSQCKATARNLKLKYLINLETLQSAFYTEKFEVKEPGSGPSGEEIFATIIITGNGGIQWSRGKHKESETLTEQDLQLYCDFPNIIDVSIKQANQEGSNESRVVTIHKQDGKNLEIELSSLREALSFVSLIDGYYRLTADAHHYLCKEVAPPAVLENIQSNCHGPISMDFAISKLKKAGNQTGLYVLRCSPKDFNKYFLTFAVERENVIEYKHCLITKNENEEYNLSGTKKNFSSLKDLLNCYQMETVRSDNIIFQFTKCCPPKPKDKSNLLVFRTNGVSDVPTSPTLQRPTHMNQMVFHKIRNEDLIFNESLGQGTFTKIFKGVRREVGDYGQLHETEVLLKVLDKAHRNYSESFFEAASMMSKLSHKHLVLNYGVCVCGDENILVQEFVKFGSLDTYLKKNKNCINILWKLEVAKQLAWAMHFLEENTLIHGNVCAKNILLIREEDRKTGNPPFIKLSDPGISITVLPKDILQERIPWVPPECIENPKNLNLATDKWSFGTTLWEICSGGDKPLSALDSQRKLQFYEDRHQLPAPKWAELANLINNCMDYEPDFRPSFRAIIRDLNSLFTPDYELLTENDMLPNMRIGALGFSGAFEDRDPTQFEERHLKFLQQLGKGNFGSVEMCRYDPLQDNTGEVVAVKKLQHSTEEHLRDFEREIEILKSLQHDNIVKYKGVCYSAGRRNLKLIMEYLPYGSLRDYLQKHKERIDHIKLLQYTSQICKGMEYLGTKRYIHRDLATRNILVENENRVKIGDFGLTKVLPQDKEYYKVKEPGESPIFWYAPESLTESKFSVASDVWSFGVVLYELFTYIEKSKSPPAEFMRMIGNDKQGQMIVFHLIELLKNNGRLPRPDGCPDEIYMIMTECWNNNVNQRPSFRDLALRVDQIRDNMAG
JAK2/JAK2 homdimeric complex, sequence (P32927 17-897 partner): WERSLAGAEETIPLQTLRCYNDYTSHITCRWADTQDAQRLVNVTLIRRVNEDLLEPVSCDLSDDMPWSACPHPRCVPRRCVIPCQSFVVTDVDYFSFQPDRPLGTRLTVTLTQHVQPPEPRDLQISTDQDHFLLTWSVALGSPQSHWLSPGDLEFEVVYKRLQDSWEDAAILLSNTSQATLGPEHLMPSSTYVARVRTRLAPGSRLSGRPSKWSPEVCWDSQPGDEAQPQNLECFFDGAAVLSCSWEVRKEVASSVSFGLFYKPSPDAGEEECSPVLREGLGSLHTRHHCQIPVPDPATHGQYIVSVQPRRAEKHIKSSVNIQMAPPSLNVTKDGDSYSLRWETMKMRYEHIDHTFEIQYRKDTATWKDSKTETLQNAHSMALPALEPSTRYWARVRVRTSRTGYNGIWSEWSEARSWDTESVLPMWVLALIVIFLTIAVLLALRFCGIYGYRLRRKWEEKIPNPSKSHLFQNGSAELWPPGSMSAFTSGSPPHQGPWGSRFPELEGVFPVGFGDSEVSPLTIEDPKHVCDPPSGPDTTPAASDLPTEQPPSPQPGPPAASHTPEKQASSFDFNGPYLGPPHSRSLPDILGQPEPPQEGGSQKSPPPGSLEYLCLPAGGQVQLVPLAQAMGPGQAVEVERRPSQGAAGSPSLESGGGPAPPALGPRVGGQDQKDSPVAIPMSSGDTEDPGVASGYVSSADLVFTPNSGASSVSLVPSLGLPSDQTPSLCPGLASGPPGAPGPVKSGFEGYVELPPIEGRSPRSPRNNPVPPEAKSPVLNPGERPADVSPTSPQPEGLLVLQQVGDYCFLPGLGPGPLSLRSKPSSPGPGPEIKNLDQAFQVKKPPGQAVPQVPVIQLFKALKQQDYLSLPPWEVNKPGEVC

[3] = target: Tyk2/JAK2 (heterodimeric complex) (Homo sapiens (Human), UniProt P29597); assay: IL-12 Induced pSTAT4 in Human PBMC; format: cell-based; details: 1.7 ng/mL IL-12
Tyk2/JAK2 (heterodimeric complex), sequence (P29597 whole entry, other chains not shown): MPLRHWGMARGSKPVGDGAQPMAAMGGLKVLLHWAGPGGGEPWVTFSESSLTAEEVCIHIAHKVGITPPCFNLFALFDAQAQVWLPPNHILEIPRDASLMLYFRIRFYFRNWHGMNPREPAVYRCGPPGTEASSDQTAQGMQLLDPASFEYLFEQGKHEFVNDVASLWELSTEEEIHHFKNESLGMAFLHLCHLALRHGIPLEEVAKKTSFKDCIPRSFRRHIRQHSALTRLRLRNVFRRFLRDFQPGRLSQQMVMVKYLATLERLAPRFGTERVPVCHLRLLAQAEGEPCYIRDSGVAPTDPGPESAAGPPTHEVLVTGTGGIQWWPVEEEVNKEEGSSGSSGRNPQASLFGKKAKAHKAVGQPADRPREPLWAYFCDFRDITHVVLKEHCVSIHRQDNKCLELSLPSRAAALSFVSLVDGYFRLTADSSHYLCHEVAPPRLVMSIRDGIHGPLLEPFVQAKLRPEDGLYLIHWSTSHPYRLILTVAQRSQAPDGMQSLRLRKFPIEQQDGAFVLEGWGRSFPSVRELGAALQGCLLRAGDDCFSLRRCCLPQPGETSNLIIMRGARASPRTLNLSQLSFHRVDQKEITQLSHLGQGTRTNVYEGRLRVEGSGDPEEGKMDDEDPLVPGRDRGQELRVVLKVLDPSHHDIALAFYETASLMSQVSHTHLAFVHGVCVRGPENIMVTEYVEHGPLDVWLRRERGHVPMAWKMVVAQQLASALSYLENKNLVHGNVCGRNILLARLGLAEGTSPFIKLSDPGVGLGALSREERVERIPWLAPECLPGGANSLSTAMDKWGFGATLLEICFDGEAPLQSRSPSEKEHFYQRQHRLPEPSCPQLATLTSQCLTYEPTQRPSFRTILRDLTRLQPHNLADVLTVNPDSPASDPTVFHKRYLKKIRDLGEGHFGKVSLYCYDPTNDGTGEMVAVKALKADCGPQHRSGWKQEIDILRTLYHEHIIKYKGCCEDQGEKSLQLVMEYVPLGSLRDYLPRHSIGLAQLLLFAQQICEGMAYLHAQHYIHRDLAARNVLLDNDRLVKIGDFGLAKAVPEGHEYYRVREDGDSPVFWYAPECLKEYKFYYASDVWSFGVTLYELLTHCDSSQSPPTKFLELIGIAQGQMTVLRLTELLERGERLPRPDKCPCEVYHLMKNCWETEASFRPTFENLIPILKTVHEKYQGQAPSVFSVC
From the text: The IL-12 Induced pSTAT4 assay evaluates the inhibition of IL-12 induced STAT4 phophorylation mediated by Tyk2/JAK2 (heterodimeric complex).

[4] = target: human TYK2 (JH2domain-pseudokinase) (Homo sapiens (Human), UniProt P29597); assay: TYK2 JH2 Domain Binding Assay (KINOMEscan)
human TYK2 (JH2domain-pseudokinase), sequence (P29597 556-888): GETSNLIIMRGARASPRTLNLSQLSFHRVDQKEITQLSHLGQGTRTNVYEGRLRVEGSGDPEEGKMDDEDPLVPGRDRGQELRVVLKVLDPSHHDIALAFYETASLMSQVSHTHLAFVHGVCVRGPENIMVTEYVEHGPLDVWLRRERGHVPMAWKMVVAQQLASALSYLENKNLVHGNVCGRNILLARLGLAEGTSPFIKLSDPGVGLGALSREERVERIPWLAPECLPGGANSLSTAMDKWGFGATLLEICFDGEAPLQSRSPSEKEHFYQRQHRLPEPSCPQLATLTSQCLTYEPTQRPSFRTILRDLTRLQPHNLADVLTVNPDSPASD
Procedure, shortened: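 Competition binding of an NFkB-DBD fusion of human TYK2 JH2 (G556–D888), expressed in HEK293 and used as crude extract at <0.1 nM, against immobilized ligand beads; 1 h at room temperature in PBS/Tween/DTT/BSA buffer, 0.9% DMSO.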

[5] = target: JAK2 kinase domain (JH1) (Homo sapiens (Human), UniProt O60674); assay: JAK2 Radioactive Kinase Assay; format: biochemical; details: compound at 10 μM; ATP 10 μM; read-out: JAK2 JH1% Inhibition @ 10 μM
JAK2 kinase domain (JH1), sequence (O60674 849-1124): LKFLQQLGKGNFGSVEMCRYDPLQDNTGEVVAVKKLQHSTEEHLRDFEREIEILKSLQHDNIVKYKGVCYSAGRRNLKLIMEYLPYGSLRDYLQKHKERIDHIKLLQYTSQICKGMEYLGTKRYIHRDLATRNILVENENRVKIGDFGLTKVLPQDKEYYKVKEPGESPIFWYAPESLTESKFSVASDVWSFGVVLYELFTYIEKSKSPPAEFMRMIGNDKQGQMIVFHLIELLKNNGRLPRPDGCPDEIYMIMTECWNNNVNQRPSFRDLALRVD
Procedure, shortened: as §1

Tyk2 kinase domain (DH1), sequence (P29597 897-1176): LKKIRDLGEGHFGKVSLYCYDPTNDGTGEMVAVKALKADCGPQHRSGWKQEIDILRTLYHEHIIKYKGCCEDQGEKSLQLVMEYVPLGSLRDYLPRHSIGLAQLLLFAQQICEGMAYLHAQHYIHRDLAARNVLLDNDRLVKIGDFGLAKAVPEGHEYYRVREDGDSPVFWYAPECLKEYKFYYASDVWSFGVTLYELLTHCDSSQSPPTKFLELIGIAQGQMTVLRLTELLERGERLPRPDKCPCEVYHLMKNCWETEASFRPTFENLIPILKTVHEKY

Compound | inhibition at 10 µM [1] | IC50 [2] | IC50 [3] | Kd [4] | inhibition at 10 µM [5]
CNc1cc(Nc2cc(F)cn(-c3ccc(C)nn3)c2=O)nc2c(C(=O)N[C@H]3C[C@H]3F)cnn12 [I-198] | < 50% | > 2500 nM | < 100 nM | < 0.2 nM | < 50%
CNc1cc(Nc2cc(F)cnc2OC(C)C)nc2c(C(=O)N[C@H]3C[C@H]3F)cnn12 [I-211] | < 50% | > 50000 nM | 100 to 500 nM | 0.2 to 1 nM | < 50%
CNc1cc(Nc2cccnc2OC2CC2)nc2c(C(=O)NC3CC3)cnn12 [I-215, 5-((2-cyclopropoxypyridin-3-yl)amino)-N-cyclopropyl-7-(methylamino) pyrazolo[1,5-a]pyrimidine-3-carboxamide] | < 50% | > 50000 nM | < 100 nM | < 0.2 nM | < 50%
CNc1cc(Nc2cccnc2OC2CC2)nc2c(C(=O)NC3CCC3)cnn12 [I-216] | < 50% | > 12500 nM | < 100 nM | < 0.2 nM | < 50%
CNc1cc(Nc2cccnc2OC2CC2)nc2c(C(=O)N[C@H]3C[C@H]3F)cnn12 [I-217] | < 50% | > 50000 nM | < 100 nM | < 0.2 nM | < 50%
CNc1cc(Nc2cccnc2OCCOC)nc2c(C(=O)NC3CCC3)cnn12 [I-219] | < 50% | > 12500 nM | < 100 nM | < 0.2 nM | < 50%
CNc1cc(Nc2cccnc2OCCOC)nc2c(C(=O)N[C@H]3C[C@H]3F)cnn12 [I-220] | < 50% | > 12500 nM | < 100 nM | < 0.2 nM | < 50%
CNc1cc(-c2cn(C(C)C)c3ncccc23)nc2c(C(N)=O)cnn12 [I-222, 5-(1-isopropyl-1H-pyrrolo[2,3-b]pyridin-3-yl)-7-(methylamino)pyrazolo[1,5-a]pyrimidine-3-carboxamide] | < 50% | > 2500 nM | < 100 nM | 0.2 to 1 nM | < 50%
CNc1cc(-c2cn(C(C)C)c3ncccc23)nc2c(C(=O)NC3CC3)cnn12 [I-223] | < 50% | > 12500 nM | < 100 nM | < 0.2 nM | < 50%
CNc1cc(-c2cn(C(C)C)c3ncccc23)nc2c(C(=O)NC3CCC3)cnn12 [I-224] | < 50% | > 50000 nM | < 100 nM | < 0.2 nM | < 50%
CNc1cc(Nc2cc(C)cn(-c3cnn(C)c3)c2=O)nc2c(C(=O)NC3CC3)cnn12 [I-233] | < 50% | > 50000 nM | < 100 nM | < 0.2 nM | < 50%
CNc1cc(Nc2cc(C)cn(-c3cnn(C)c3)c2=O)nc2c(C(=O)NC3CCC3)cnn12 [I-234] | < 50% | > 2500 nM | < 100 nM | < 0.2 nM | < 50%
CNc1cc(Nc2cc(C)cn(-c3cnn(C)c3)c2=O)nc2c(C(=O)N[C@H]3C[C@H]3F)cnn12 [I-235] | < 50% | > 2500 nM | < 100 nM | < 0.2 nM | < 50%
CNc1cc(Nc2cccc(N3CCOC3=O)n2)nc2c(C(=O)N[C@H]3C[C@H]3F)cnn12 [I-236] | < 50% | > 2500 nM | < 100 nM | < 0.2 nM | < 50%
CNc1cc(Nc2cccn(-c3ccc(F)cn3)c2=O)nc2c(C(=O)NC3CCC3)cnn12 [I-238] | < 50% | > 50000 nM | < 100 nM | < 0.2 nM | < 50%
CNc1cc(Nc2cccn(-c3ccc(C4CC4)nn3)c2=O)nc2c(C(=O)NC3CCC3)cnn12 [I-240] | < 50% | > 2500 nM | < 100 nM | < 0.2 nM | < 50%
CNc1cc(Nc2cccn(-c3nccs3)c2=O)nc2c(C(=O)N[C@H]3C[C@H]3F)cnn12 [I-243] | < 50% | > 2500 nM | < 100 nM | 0.2 to 1 nM | < 50%
CNc1cc(Nc2cccc(N3CCCC3=O)n2)nc2c(C(=O)N[C@H]3C[C@H]3F)cnn12 [I-244] | < 50% | > 12500 nM | < 100 nM | < 0.2 nM | < 50%
CNc1cc(Nc2cccn(-c3ccc(F)cc3)c2=O)nc2c(C(=O)NC3CCC3)cnn12 [I-246] | < 50% | > 2500 nM | < 100 nM | < 0.2 nM | < 50%
CNc1cc(Nc2cc(C)cn(-c3ccn(C)n3)c2=O)nc2c(C(=O)N[C@H]3C[C@H]3F)cnn12 [I-250] | < 50% | > 12500 nM | < 100 nM | < 0.2 nM | < 50%
CNc1cc(-c2cn(C(C)C)c3ncc(C)cc23)nc2c(C(N)=O)cnn12 [I-255] | < 50% | > 50000 nM | < 100 nM | < 0.2 nM | < 50%
[2H]C([2H])([2H])Oc1ncc(C)cc1Nc1cc(NC)n2ncc(C(=O)NC3CC3)c2n1 [I-258] | < 50% | > 50000 nM | < 100 nM | < 0.2 nM | < 50%
[2H]C([2H])([2H])Oc1ncc(C)cc1Nc1cc(NC)n2ncc(C(=O)N[C@H]3C[C@H]3F)c2n1 [I-259] | < 50% | > 12500 nM | < 100 nM | < 0.2 nM | < 50%
CNc1cc(Nc2cccn(-c3ncc(C)s3)c2=O)nc2c(C(=O)NC3CC3)cnn12 [I-261, N-cyclopropyl-7-(methylamino)-5-((1-(5-methylthiazol-2-yl)-2-oxo-1,2-dihydropyridin-3-yl)amino)pyrazolo[1,5-a]pyrimidine-3-carboxamide] | < 50% | > 2500 nM | < 100 nM | 0.2 to 1 nM | < 50%
CNc1cc(Nc2cccn(-c3ncc(C)s3)c2=O)nc2c(C(=O)N[C@H]3C[C@H]3F)cnn12 [I-262] | < 50% | > 2500 nM | < 100 nM | < 0.2 nM | < 50%
CNc1cc(Nc2cccn(-c3ncc(C)s3)c2=O)nc2c(C(=O)NC3CCC3)cnn12 [I-263] | < 50% | > 2500 nM | < 100 nM | < 0.2 nM | < 50%
CNc1cc(Nc2cccn(-c3ccc(OC)cn3)c2=O)nc2c(C(=O)N[C@H]3C[C@H]3F)cnn12 [I-265] | < 50% | > 12500 nM | < 100 nM | < 0.2 nM | < 50%
CNc1cc(Nc2cccn(-c3ccc(OC)cn3)c2=O)nc2c(C(=O)NC3CCC3)cnn12 [I-266] | < 50% | > 12500 nM | < 100 nM | < 0.2 nM | < 50%
CNc1cc(Nc2cccn(CCOC)c2=O)nc2c(C(=O)NC3CCC3)cnn12 [I-269] | < 50% | > 50000 nM | < 100 nM | < 0.2 nM | < 50%
